According to patent US9604987B2, “Synthesis of autophagy inducing compound and the uses thereof” (Hong Kong Baptist University, priority 2012, dated 2017):

What was measured:
[1] = tested on: rat primary cortical neurons; assay: LC3 immunoblot in primary cultured rat cortical neurons; type: cell-based; conditions: different concentrations, 24 hours
Experimental: To further confirm the pro-autophagic effect of CB6 and CB8 on primary neurons, rat primary cortical neurons isolated from E17 rats are used in the study. The primary neurons are treated with different concentrations of CB6 and CB8 respectively for 24 hours, and autophagic markers LC3 is detected by immunoblot analysis.
The E16 pregnant rat was anesthetized by intraperitoneal injection with 3% chloral hydrate in normal saline (1 ml/100 g bdw). The uterus containing embryos were dissected and transferred to a Petri dish, and then the embryos were collected on a new petri dish containing ice cold PBS. The brains of the embryos were then dissected under stereoscope and the cortices of the brains were placed in a Petri dish containing ice cold 10% FBS DMEM. The meninges of the cortices were removed carefully and then transferred to a 15 ml tube. Total 5 ml of digestion solution (1.25% Trypsin diluted with DMEM/F12 medium) were added into the tube containing meninges-free cortices and then incubated at 37° C. for 15 min. The digestion was stopped by adding 10% FBS DMEM/F12 supplemented with 10 μg/ml DNase (Sigma, DN25). […] The viable cells without staining with typan blue were then counted under microscope. […]

[2] = tested on: L3 Drosophila larvae fat body; assay: LysoTracker Red staining of Drosophila L3 larvae fat body; type: in vivo
Experimental: Drosophila culture and drug feeding. Flies were raised at 25° C. on standard corn meal medium supplemented with dry yeast. Cory B and rapamycin were initially dissolved in DMSO then diluted in water to desired concentrations. The drug containing water was added into instant Drosophila food and mixed thoroughly. As the control, the same amount of DMSO was also mixed with instant Drosophila food. For the treatment, L3 larvae or adult flies were transferred to the drug-containing medium and incubated for indicated time.
Lysotracker staining and quantitative analysis of autophagic structures. L3 larvae were dissected using fine forceps under a dissecting microscope and inverted so that fat bodies were exposed to the incubating solution. The larvae carcasses were stained with 100 nM of LysoTracker red in PBS for 5 minutes at room temperature. After the incubation, the larvae carcasses were rinsed once in PBS and transferred to a glass slide with a drop of mounting medium on it. […] Fat body lobes were then covered with a cover slide and immediately observed under a standard fluorescence microscope. Quantitative analysis of lysotracker-positive spots was performed according to previous described protocol with minor revision. […] The numbers of lysotracker-positive spots were quantified from at least 20 randomly selected fluorescent image fields (4700 μm^2/field). […]

Row | SMILES | autophagy (LC3 immunoblot) [1] | LysoTracker Red-positive puncta in fat bodies ([2]; fed 0.2 mg/ml, 6 hours) | LysoTracker Red puncta formation in presence of 3-MA ([2]; with autophagy inhibitor 3-MA)
1 | C=CCN1C(=O)[C@]2(CCN3C[C@@H](CC)[C@@H](/C(=C\OC)C(=O)OC)C[C@H]32)c2ccccc21 [CB8] | induced autophagy |  | 
2 | CC[C@@H]1CN2CC[C@]3(C(=O)Nc4ccccc43)C2C[C@@H]1C(=COC)C(=O)OC (stereo partly shown) [Cory B, Corynoxine B] |  | induces formation of LysoTracker Red-positive puncta | blocked
3 | CCCN1C(=O)[C@]2(CCN3C[C@@H](CC)[C@@H](/C(=C\OC)C(=O)OC)C[C@H]32)c2ccccc21 [CB6] | induced autophagy |  | 
